In US6376488B1, “Benzoxazine α-1 adrenergic compounds” (Abbott Laboratories, priority 2000, dated 2002):
Structures can show the parent of a compound that is named as a salt.

Row | melting point [°C] | Compound
1 | 207 to 210 | COc1cccc2c1N1CCN(CCCCn3c(=O)[nH]c4c(sc5ncccc54)c3=O)CC1CO2 (single isomer, unassigned; (-)) (as salt: hydrochloride) [Example 11, (−) 3-[4-(10-methoxy-1,2,4a,5-tetrahydropyrazino[2,1-c][1,4]benzoxazin-3(4H)-yl)butyl]pyrido[3′,2′:4.5]thieno[3,2-d]pyrimidine-2,4(1H,3H)-dione trihydrochloride]
2 | 282 to 284 | O=c1[nH]c2c(sc3cccnc32)c(=O)n1CCCCN1CCN2c3ccccc3OCC2C1 (single isomer, unassigned; (-)) (as salt: hydrochloride) [Example 4, (−) 3-[4-(1.2,4a,5-tetrahydropyrazino[2,1-c][1,4benzoxazin-3(4H)-yl)butyl]pyrido[2′,3′:4,5]thieno[3,2-d]pyrimidine-2,4(1H,3H)-dione dihydrochloride]
3 | 280 to 282 | COc1cccc2c1N1CCN(CCCCn3c(=O)[nH]c4c(sc5cccnc54)c3=O)CC1CO2 (single isomer, unassigned; (+)) (as salt: hydrochloride) [Example 14, (+) 3-[4-(10-methoxy-1,2,4a,5-tetrahydropyrazino[2,1-c][1,4]benzoxazin-3(4H)-yl)butyl]pyido [2′,3′:4,5]thieno[3,2-d]pyrimidine-2,4(1H,3H)-dione trihydrochloride]
